Results taken from article PMC8804615, “Characterization and comparison of recombinant full‐length ursine and human sex hormone‐binding globulin” (FEBS Open Bio, 2021).

Key:
[1] = biological target: T1, human SHBG (hSHBG) (Homo sapiens, UniProt P04278); test: competition with [3H]DHT, dextran-coated charcoal separation; type: binding; details: ~6 nM [3H]DHT; data not shown
T1 construct: homodimer ~94 kDa, glycosylated
T1 sequence (P04278 30-402): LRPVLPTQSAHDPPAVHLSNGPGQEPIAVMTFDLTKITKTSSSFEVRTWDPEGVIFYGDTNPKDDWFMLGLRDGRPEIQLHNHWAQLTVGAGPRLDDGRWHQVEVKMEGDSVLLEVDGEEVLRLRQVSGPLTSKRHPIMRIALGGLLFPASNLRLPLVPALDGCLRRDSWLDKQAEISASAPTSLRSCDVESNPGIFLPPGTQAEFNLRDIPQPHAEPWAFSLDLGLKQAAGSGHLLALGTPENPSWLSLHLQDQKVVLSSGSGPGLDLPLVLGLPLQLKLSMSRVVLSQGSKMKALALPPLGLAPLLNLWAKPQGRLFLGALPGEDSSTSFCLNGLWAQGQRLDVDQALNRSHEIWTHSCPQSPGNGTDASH

[2] = biological target: T2, ursine SHBG (uSHBG) (Ursus arctos, UniProt Z9D432XYQ2); test: as above; type: binding; details: ~6 nM [3H]DHT; data not shown
T2 construct: homodimer ~93 kDa, glycosylated; 402 aa precursor
T2 sequence (Z9D432XYQ2 27-402 limits assumed): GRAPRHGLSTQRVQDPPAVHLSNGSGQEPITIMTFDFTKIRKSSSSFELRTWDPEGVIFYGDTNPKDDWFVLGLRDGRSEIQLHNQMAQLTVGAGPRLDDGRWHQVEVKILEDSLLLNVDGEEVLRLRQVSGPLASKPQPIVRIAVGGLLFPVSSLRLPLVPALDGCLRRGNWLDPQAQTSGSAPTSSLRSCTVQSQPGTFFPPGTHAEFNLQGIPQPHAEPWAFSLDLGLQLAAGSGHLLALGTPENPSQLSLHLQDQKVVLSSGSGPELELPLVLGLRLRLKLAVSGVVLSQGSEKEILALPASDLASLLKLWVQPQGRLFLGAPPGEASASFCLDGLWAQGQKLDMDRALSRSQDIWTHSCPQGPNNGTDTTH

[3] = biological target: recombinant full-length ursine sex hormone-binding globulin with a C-terminal FLAG tag (Ursus arctos (brown bear)); test: SEC-MALS; WYATT 30S5 SEC column, 20 mM Tris-HCl, 250 mM NaCl (for the ursine measurements), 1 mM CaCl2, 1 uM DHT, pH 8.0; about 10 ug SHBG injected; dimer
[4] = biological target: the molecule itself; test: SEC-MALS; WYATT 30S5 SEC column, 20 mM Tris-HCl, 150 mM NaCl, 1 mM CaCl2, 1 uM DHT, pH 8.0; about 10 ug SHBG injected; dimer
[5] = biological target: the molecule itself; test: SEC-MALS; native human serum SHBG; WYATT 30S5 SEC column, 20 mM Tris-HCl, 150 mM NaCl, 1 mM CaCl2, 1 uM DHT, pH 8.0; dimer

Row | Molecule | RBA (DHT = 100%) [1] [%] | RBA (DHT = 100%) [2] [%] | further results
1 | C[C@]12CCC(=O)C=C1CC[C@@H]1[C@@H]2CC[C@@]2(C)[C@H]1CC[C@]2(O)C(=O)CO [11‐deoxycortisol] | < 1 | < 1 | –
2 | C[C@]12CCC(=O)C=C1CC[C@@H]1[C@@H]2CC[C@]2(C)C(=O)CC[C@@H]12 [androstenedione] | < 1 | < 1 | –
3 | C[C@]12C[C@H](O)[C@H]3[C@@H](CCC4=CC(=O)CC[C@@]43C)[C@@H]1CC[C@@H]2C(=O)CO [corticosterone] | < 1 | < 1 | –
4 | C[C@]12CC[C@H](O)CC1=CC[C@@H]1[C@@H]2CC[C@]2(C)C(=O)CC[C@@H]12 [dehydroepiandrosterone] | < 1 | < 1 | –
5 | C[C@]12CC[C@H]3[C@@H](CCC4=CC(=O)CC[C@@]43C)[C@@H]1CC[C@@H]2C(=O)CO [deoxycorticosterone] | < 1 | – | –
6 | CC(=O)[C@H]1CC[C@H]2[C@@H]3CCC4=CC(=O)CC[C@]4(C)[C@H]3CC[C@]12C [progesterone] | < 1 | < 1 | –
7 | recombinant full-length ursine sex hormone-binding globulin with a C-terminal FLAG tag (natural protein) | – | – | stoichiometry N [3]: 2
8 | recombinant full-length human sex hormone-binding globulin with a C-terminal FLAG tag (natural protein, UniProt P04278-1 30-402, looked up, glycosylated (insect cell glycans); disulfide Cys164-Cys188 verified by MALDI-ToF MS, precursor of 402 residues expressed with its native signal peptide (29 residues, [residues removed]), which is cleaved on secretion; a second N-terminus one residue shorter (RPVLPTQ...) was also seen by MS. numbers count on: the mature protein; cDNA amplified from human liver total RNA; also called human SHBG; hSHBG; not shown: FLAG, C-terminal, kept) LRPVLPTQSAHDPPAVHLSNGPGQEPIAVMTFDLTKITKTSSSFEVRTWDPEGVIFYGDTNPKDDWFMLGLRDGRPEIQLHNHWAQLTVGAGPRLDDGRWHQVEVKMEGDSVLLEVDGEEVLRLRQVSGPLTSKRHPIMRIALGGLLFPASNLRLPLVPALDGCLRRDSWLDKQAEISASAPTSLRSCDVESNPGIFLPPGTQAEFNLRDIPQPHAEPWAFSLDLGLKQAAGSGHLLALGTPENPSWLSLHLQDQKVVLSSGSGPGLDLPLVLGLPLQLKLSMSRVVLSQGSKMKALALPPLGLAPLLNLWAKPQGRLFLGALPGEDSSTSFCLNGLWAQGQRLDVDQALNRSHEIWTHSCPQSPGNGTDASH | – | – | stoichiometry N [4]: 2
9 | native human serum SHBG (natural protein, UniProt P04278-1 30-402, looked up, also called native serum SHBG; SHBG present in human serum) LRPVLPTQSAHDPPAVHLSNGPGQEPIAVMTFDLTKITKTSSSFEVRTWDPEGVIFYGDTNPKDDWFMLGLRDGRPEIQLHNHWAQLTVGAGPRLDDGRWHQVEVKMEGDSVLLEVDGEEVLRLRQVSGPLTSKRHPIMRIALGGLLFPASNLRLPLVPALDGCLRRDSWLDKQAEISASAPTSLRSCDVESNPGIFLPPGTQAEFNLRDIPQPHAEPWAFSLDLGLKQAAGSGHLLALGTPENPSWLSLHLQDQKVVLSSGSGPGLDLPLVLGLPLQLKLSMSRVVLSQGSKMKALALPPLGLAPLLNLWAKPQGRLFLGALPGEDSSTSFCLNGLWAQGQRLDVDQALNRSHEIWTHSCPQSPGNGTDASH | – | – | stoichiometry N [5]: 2
